{
  "source": "ChEMBL document CHEMBL1151565",
  "about": "“Biological evaluation of two potent inhibitors of Trypanosoma cruzi epimastigotes against the intracellular form of the parasite” (1996)",
  "format_in_all_cases": "functional",
  "key": {"[1]": {"assay": "Compound was tested for its activity against T. cruzi-infected L6E9 myoblasts at no concentration at 24 h."}, "[2]": {"assay": "Compound was tested for its activity against T. cruzi-infected L6E9 myoblasts at no concentration at 48 hr."}, "[3]": {"assay": "Compound was tested for its activity against T. cruzi-infected L6E9 myoblasts at no concentration at 72h."}, "[4]": {"assay": "Compound was tested for its activity against T. cruzi-infected L6E9 myoblasts at a concentration of 30 ug/mL."}, "[5]": {"assay": "Compound was tested for its activity against T. cruzi-infected L6E9 myoblasts at a concentration of 40 ug/mL."}, "[6]": {"assay": "Compound was tested for its activity against T. cruzi-infected L6E9 myoblasts expressed as parasites number per 100 myoblasts at a concentration of 30 ug/mL."}, "[7]": {"assay": "Compound was tested for its activity against T. cruzi-infected L6E9 myoblasts expressed as parasites number per 100 myoblasts at no concentration at 24 h."}, "[8]": {"assay": "Compound was tested for its activity against T. cruzi-infected L6E9 myoblasts expressed as parasites number per 100 myoblasts at no concentration at 48 hr."}, "[9]": {"assay": "Compound was tested for its activity against T. cruzi-infected L6E9 myoblasts expressed as parasites number per 100 myoblasts at no concentration at 72h."}, "[10]": {"assay": "Compound was tested for its activity against T. cruzi-infected L6E9 myoblasts at a concentration of 10 ug/mL."}, "[11]": {"assay": "Compound was tested for its activity against T. cruzi-infected L6E9 myoblasts at a concentration of 5 ug/mL."}, "[12]": {"assay": "Compound was tested for its activity against T. cruzi-infected L6E9 myoblasts expressed as parasites number per 100 myoblasts at a concentration of 5 ug/mL."}},
  "note": "Several values for one entry are separate records, joined by “and”; a condition that tells them apart may be missing. Equal values may be shown once.",
  "data": [
    {"smiles": "CCSC(=O)OC/C=C(\\C)CC/C=C(\\C)CCC1OC1(C)C", "note": "(stereo unspecified)", "values": [
      {"measurement": "Myoblast with parasites", "setting": "[1]", "value": 21.25, "unit": "%"},
      {"measurement": "Myoblast with parasites", "setting": "[2]", "value": 16.25, "unit": "%"},
      {"measurement": "Myoblast with parasites", "setting": "[3]", "value": 20.5, "unit": "%"},
      {"measurement": "Myoblast with parasites", "setting": "[4]", "value": "23.25% and 9.75%"},
      {"measurement": "Myoblast with parasites", "setting": "[5]", "value": "10.25% and 2.75%"},
      {"measurement": "Parasites no. per 100 Myoblasts", "setting": "[6]", "value": "77.75 and 27"},
      {"measurement": "Parasites no. per 100 Myoblasts", "setting": "[7]", "value": 46.5},
      {"measurement": "Parasites no. per 100 Myoblasts", "setting": "[8]", "value": 118},
      {"measurement": "Parasites no. per 100 Myoblasts", "setting": "[9]", "value": 694.5}
    ]},
    {"smiles": "c1ccc(Oc2ccc(OCCOC3CCCCO3)cc2)cc1", "note": "(stereo unspecified)", "values": [
      {"measurement": "Myoblast with parasites", "setting": "[1]", "value": 21.25, "unit": "%"},
      {"measurement": "Myoblast with parasites", "setting": "[2]", "value": 24.5, "unit": "%"},
      {"measurement": "Myoblast with parasites", "setting": "[3]", "value": 18.25, "unit": "%"},
      {"measurement": "Myoblast with parasites", "setting": "[10]", "value": "21.25% and 12.5%"},
      {"measurement": "Myoblast with parasites", "setting": "[11]", "value": "22.5% and 22%"},
      {"measurement": "Parasites no. per 100 Myoblasts", "setting": "[12]", "value": "90.25 and 113.75"},
      {"measurement": "Parasites no. per 100 Myoblasts", "setting": "[8]", "value": 107}
    ]}
  ]
}
